In patent US20070087029A1, “Localized delivery to the lymphatic system” (priority 2005, published 2007):

Experiments:
[1] = Acute delivery: injection of tracking dye subcutaneously and above the IP wall, dye diffusion and gross visual examination of internal organs; format: in vivo, rat
Experimental: (§1) Animals. Male Lewis Inbred rats, six to eight weeks of age, were obtained from Charles River Laboratories and were acclimatized for five days before use. Animals were anesthetized with sodium pentobarbital before implants and dye injections.
(§2) Dyes. Isosulfan blue, india ink, and goat anti rabbit horse radish peroxidase (HRP) were used.
Acute delivery. 40 microliters (μl) of isosulfan blue was injected subcutaneously and above the IP wall. The location of the injection was varied to detect the site which would drain into the para-aortic lymph nodes. Dye diffusion was monitored at five minutes and thirty minutes. The animals were then sacrificed and a gross visual examination of the internal organs was performed to identify dye drainage into internal organs.

[2] = Chronic delivery: continuous infusion of dye(s) by Alzet miniosmotic pump for fourteen days, drainage to lymph nodes (photographs, OPD substrate development, histology); format: in vivo, rat; conditions: 14 days, open ended catheter, tip became occluded
Description: as §1, §2
Chronic delivery. Alzet® miniosmotic pumps with a delivery rate of 0.25 or 0.5 microliter/hour (μl/hr) were used to continuously infuse dye(s) for fourteen days. The animals were sacrificed and a gross visual examination of the internal organs was performed to identify dye drainage into internal organs. Lymph nodes were collected, photographed, and analyzed as described in Table 1, below.

dye diffusion after subcutaneous injection ([1]; 40 μl, subcutaneous injection, 30 minutes): Minimal diffusion
staining of internal organs after subcutaneous injection ([1]; injection site 1 cm above the hip joint, covered inguinal and popliteal beds): no internal organs being stained
dye diffusion after injection into the peritoneal wall ([1]; peritoneal wall, one centimeter above the hip joint): minimal diffusion
staining of internal organs after peritoneal wall injection ([1]; peritoneal wall, one centimeter above the hip joint, covered inguinal and popliteal beds): no internal organs being stained
dye in lymph nodes after chronic delivery [2]: not observed
Compound: CCN(CC)c1ccc(C(=C2C=CC(=[N+](CC)CC)C=C2)c2cc(S(=O)(=O)[O-])ccc2S(=O)(=O)[O-])cc1.[Na+] [isosulfan blue, Isosulfan blue]
